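Cells were grown in 96-well plates and exposed to each compound for 48 hours at five concentrations; endpoints were interpolated linearly between bracketing concentrations, or set to the highest concentration if not reached. At the GI50, growth is halved.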 Calls of active or inactive are those of the source. Rule as the data show it: active = GI50 up to about 1.1 µM and inactive = higher.
Tests used:
Test in all cases: inhibition of tumour cell growth, NCI panel, 48 h
A549 = tested on: A549
COLO 205 = tested on: COLO 205
DLD-1 = tested on: DLD-1
DMS-114 = tested on: DMS-114
HL-60 = tested on: HL-60
KM12 = tested on: KM12
LXFL 529 = tested on: LXFL 529
M14 = tested on: M14
MOLT-4 = tested on: MOLT-4
OVCAR-3 = tested on: OVCAR-3
OVCAR-5 = tested on: OVCAR-5
SF-539 = tested on: SF-539
SN12C = tested on: SN12C
SR = tested on: SR
TK-10 = tested on: TK-10
UO-31 = tested on: UO-31
DU-145 = tested on: DU-145
MCF7 = tested on: MCF7
NCI/ADR-RES = tested on: NCI/ADR-RES
XF498 = tested on: XF498

Structure (SMILES)	GI50 (A549)	GI50 (COLO 205)	GI50 (DLD-1)	GI50 (DMS-114)	GI50 (HL-60)	GI50 (KM12)	GI50 (LXFL 529)	GI50 (M14)	GI50 (MOLT-4)	GI50 (OVCAR-3)	GI50 (OVCAR-5)	GI50 (SF-539)	GI50 (SN12C)	GI50 (SR)	GI50 (TK-10)	GI50 (UO-31)	GI50 (DU-145)	GI50 (MCF7)	GI50 (NCI/ADR-RES)	GI50 (XF498)
CCN(CC)C(=O)COc1ccc(Br)cc1Br	> 100 µM (inactive)	> 100 µM (inactive)	> 100 µM (inactive)	> 100 µM (inactive)	83.9 µM (inactive)	> 100 µM (inactive)	> 100 µM (inactive)	> 100 µM (inactive)	> 100 µM (inactive)	> 100 µM (inactive)	> 100 µM (inactive)	> 100 µM (inactive)	> 100 µM (inactive)	> 100 µM (inactive)	> 100 µM (inactive)	> 100 µM (inactive)				
CCCC(=O)OC1C(C(O)CO)OC2OC(C)(C)OC21 (stereo unspecified)	> 100 µM (inactive)	> 100 µM (inactive)	> 100 µM (inactive)	> 100 µM (inactive)		> 100 µM (inactive)		> 100 µM (inactive)	> 100 µM (inactive)	> 100 µM (inactive)	> 100 µM (inactive)	> 100 µM (inactive)	> 100 µM (inactive)	> 100 µM (inactive)	> 100 µM (inactive)	> 100 µM (inactive)	> 100 µM (inactive)	> 100 µM (inactive)	> 100 µM (inactive)	> 100 µM (inactive)
CC(C)(c1ccc(C=O)o1)c1ccc(C(C)(C)c2ccc(C=O)o2)o1	> 100 µM (inactive)	> 100 µM (inactive)			> 100 µM (inactive)	> 100 µM (inactive)	> 100 µM (inactive)		> 100 µM (inactive)		> 100 µM (inactive)	> 100 µM (inactive)		> 100 µM (inactive)	> 100 µM (inactive)					
COc1cc(/C=C(\C#N)C(=O)c2ccccc2)ccc1OCc1ccccc1	> 100 µM (inactive)	> 100 µM (inactive)		> 100 µM (inactive)	> 100 µM (inactive)	> 100 µM (inactive)		> 100 µM (inactive)	> 100 µM (inactive)	> 100 µM (inactive)	> 100 µM (inactive)	> 100 µM (inactive)	> 100 µM (inactive)	> 100 µM (inactive)	> 100 µM (inactive)	> 100 µM (inactive)				> 100 µM (inactive)
COc1cccc(NC(=O)C(=O)C(C(C)=O)c2nc3ccc(Cl)cc3nc2O)c1 (stereo unspecified)	> 100 µM (inactive)	> 100 µM (inactive)	> 100 µM (inactive)	> 100 µM (inactive)	> 100 µM (inactive)	> 100 µM (inactive)	> 100 µM (inactive)	> 100 µM (inactive)	> 100 µM (inactive)	> 100 µM (inactive)	> 100 µM (inactive)	> 100 µM (inactive)	> 100 µM (inactive)		> 100 µM (inactive)	> 100 µM (inactive)				
O=C(NC(=O)c1cn(CCN(CCO)C(=O)NCCCCCCNC(=O)N(CCO)CCn2cc(C(=O)NC(=O)OCc3ccccc3)c(=O)[nH]c2=O)c(=O)[nH]c1=O)OCc1ccccc1	> 100 µM (inactive)	> 100 µM (inactive)	> 100 µM (inactive)	> 100 µM (inactive)	> 100 µM (inactive)			> 100 µM (inactive)	> 100 µM (inactive)	> 100 µM (inactive)	> 100 µM (inactive)	> 100 µM (inactive)	> 100 µM (inactive)		> 100 µM (inactive)	> 100 µM (inactive)				> 100 µM (inactive)
CC1(C)COC(c2cccc3c2C(=O)c2cccc(Cl)c2-3)=N1	58.1 µM (inactive)	42.9 µM (inactive)		36 µM (inactive)	28.4 µM (inactive)	47.9 µM (inactive)	37.7 µM (inactive)	47.9 µM (inactive)	29.2 µM (inactive)	78.2 µM (inactive)	> 100 µM (inactive)	68.7 µM (inactive)	74 µM (inactive)		41.7 µM (inactive)	27.1 µM (inactive)				46.7 µM (inactive)
N#CCc1ccc(C(C#N)/C(CCCC(=O)Nc2cccc([N+](=O)[O-])c2)=N/NC(N)=S)cc1 (stereo unspecified)	> 100 µM (inactive)	> 100 µM (inactive)	87.5 µM (inactive)	99.1 µM (inactive)	> 100 µM (inactive)	> 100 µM (inactive)	92 µM (inactive)	> 100 µM (inactive)	70.3 µM (inactive)	75.3 µM (inactive)	> 100 µM (inactive)	> 100 µM (inactive)	> 100 µM (inactive)	> 100 µM (inactive)	> 100 µM (inactive)	> 100 µM (inactive)				
O=C(C(=O)c1ccc(Cc2ccc(C(=O)C(=O)c3ccccc3)cc2)cc1)c1ccccc1	> 100 µM (inactive)	> 100 µM (inactive)	> 100 µM (inactive)	> 100 µM (inactive)	> 100 µM (inactive)	> 100 µM (inactive)	> 100 µM (inactive)	> 100 µM (inactive)		> 100 µM (inactive)	> 100 µM (inactive)	> 100 µM (inactive)	> 100 µM (inactive)		> 100 µM (inactive)	> 100 µM (inactive)				
COc1ccc2c(c1)C=C(C(C)(C)C)NS2(=O)=O	> 100 µM (inactive)	> 100 µM (inactive)	> 100 µM (inactive)	> 100 µM (inactive)	> 100 µM (inactive)	> 100 µM (inactive)	> 100 µM (inactive)	> 100 µM (inactive)	> 100 µM (inactive)	> 100 µM (inactive)	> 100 µM (inactive)	> 100 µM (inactive)	> 100 µM (inactive)	> 100 µM (inactive)	> 100 µM (inactive)	> 100 µM (inactive)				
CN(C)CC/C(=N\Nc1ccc(Cl)cc1)c1ccccc1	1.47 µM (inactive)	1.75 µM (inactive)	0.409 µM (active)	0.933 µM (active)	0.369 µM (active)	0.589 µM (active)	0.182 µM (active)	1.67 µM (inactive)	0.403 µM (active)	1.51 µM (inactive)	1.24 µM (inactive)	1.92 µM (inactive)	1.58 µM (inactive)	0.415 µM (active)	0.593 µM (active)	0.25 µM (active)				
N#CC(C#N)C(c1ccccc1)c1ccccc1	> 100 µM (inactive)	> 100 µM (inactive)	> 100 µM (inactive)	70.8 µM (inactive)	> 100 µM (inactive)	> 100 µM (inactive)	> 100 µM (inactive)	> 100 µM (inactive)	82 µM (inactive)	> 100 µM (inactive)	> 100 µM (inactive)	> 100 µM (inactive)	> 100 µM (inactive)	> 100 µM (inactive)	> 100 µM (inactive)	> 100 µM (inactive)				
CC(=O)N(C)CCc1c[nH]c2ccccc12	> 100 µM (inactive)	> 100 µM (inactive)			> 100 µM (inactive)	> 100 µM (inactive)		> 100 µM (inactive)	> 100 µM (inactive)	> 100 µM (inactive)	> 100 µM (inactive)	> 100 µM (inactive)	> 100 µM (inactive)	> 100 µM (inactive)	> 100 µM (inactive)	> 100 µM (inactive)	> 100 µM (inactive)	> 100 µM (inactive)	> 100 µM (inactive)	
CC(=O)C1C(c2ccc(N(C)C)cc2)c2cc3c(cc2OC1(C)O)OCO3 (stereo unspecified)	37.6 µM (inactive)	41.1 µM (inactive)	59.3 µM (inactive)	33.3 µM (inactive)	24.3 µM (inactive)			43.8 µM (inactive)	32.1 µM (inactive)	35 µM (inactive)			40.1 µM (inactive)		51.2 µM (inactive)	29.4 µM (inactive)				34 µM (inactive)
Cc1ccc(/N=N/c2c(O)ccc3cc(S(=O)(=O)O)cc(S(=O)(=O)O)c23)cc1	> 100 µM (inactive)	> 100 µM (inactive)			> 100 µM (inactive)	> 100 µM (inactive)		> 100 µM (inactive)	> 100 µM (inactive)	> 100 µM (inactive)	> 100 µM (inactive)	> 100 µM (inactive)	> 100 µM (inactive)	> 100 µM (inactive)	> 100 µM (inactive)	> 100 µM (inactive)	> 100 µM (inactive)	> 100 µM (inactive)	> 100 µM (inactive)	
COc1cc(C2c3cc4c(cc3CC3COC(=O)N32)OCO4)cc(OC)c1OC (stereo unspecified)	3.08 µM (inactive)	1.92 µM (inactive)			2.08 µM (inactive)	2.44 µM (inactive)		3.37 µM (inactive)	3.67 µM (inactive)	1.93 µM (inactive)	> 53.1 µM (inactive)	2.39 µM (inactive)	4.73 µM (inactive)	1.57 µM (inactive)	> 22.9 µM (inactive)	5.33 µM (inactive)	5.33 µM (inactive)	3.84 µM (inactive)	1.58 µM (inactive)	
O=C(N/C(=C\c1ccccc1O)c1nc2ccccc2[nH]1)c1ccccc1	> 100 µM (inactive)	> 100 µM (inactive)		41.5 µM (inactive)		> 100 µM (inactive)	51.2 µM (inactive)	> 100 µM (inactive)	> 100 µM (inactive)	> 100 µM (inactive)	> 100 µM (inactive)	75.7 µM (inactive)	89.7 µM (inactive)		41.5 µM (inactive)	> 100 µM (inactive)				> 100 µM (inactive)
NC(=O)NN=C1Cc2ccccc2C1	> 100 µM (inactive)	> 100 µM (inactive)			> 100 µM (inactive)	> 100 µM (inactive)		> 100 µM (inactive)	> 100 µM (inactive)	> 100 µM (inactive)	> 100 µM (inactive)	> 100 µM (inactive)	> 100 µM (inactive)	> 100 µM (inactive)	> 100 µM (inactive)	> 100 µM (inactive)	> 100 µM (inactive)	> 100 µM (inactive)	> 100 µM (inactive)	
